# Source: patent publication US11046716B2, “Beta-lactamase inhibitors” (priority 2015, dated 2021)
# Tests used:
# SHV-5 = target: T1, SHV-5 (Klebsiella pneumoniae, UniProt P0A3M1); assay: β-lactamase enzyme inhibition assay, SHV-5 (cefotaxime substrate); type: biochemical
# T1 construct: made in house; host or cells: E. coli BL21(DE3)
# Summary of the method: (§1)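 Compounds are mixed with purified, untagged recombinant β-lactamase and held 15 min at 37 °C. Substrate is then added: nitrocefin (100 μM final) for OXA-1, imipenem for KPC-2, cefotaxime for SHV-5. Absorbance is followed immediately, and percent inhibition per concentration gives the IC50.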
# KPC-2 = target: T2, KPC-2 (Klebsiella pneumoniae, UniProt Q9F663); assay: β-lactamase enzyme inhibition assay, KPC-2 (imipenem substrate); type: biochemical; conditions: Class A; imipenem substrate, 300 nm; read-out: KPC-2
# T2 construct: made in house; host or cells: E. coli BL21(DE3)
# Summary of the method: as §1
# VIM-2 = target: T3, VIM-2 (Escherichia coli, UniProt Q5U7L7); assay: β-lactamase enzyme inhibition assay, VIM-2 (nitrocefin substrate); type: biochemical; conditions: Class B; nitrocefin substrate, 486 nm; read-out: VIM-2
# T3 construct: made in house; host or cells: E. coli BL21(DE3)
# Summary of the method: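 Metallo-β-lactamase VIM-2 activity was tracked spectrophotometrically at 486 nm with 100 μM nitrocefin over 10 min, following 15 min preincubation with compound at 37 °C; inhibition was calculated per concentration.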
# AmpC = target: T4, AmpC (Enterobacter cloacae, UniProt P05364); assay: β-lactamase enzyme inhibition assay, p99 AmpC (nitrocefin substrate); type: biochemical
# T4 construct: made in house; host or cells: E. coli BL21(DE3)
# Summary of the method: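 Compounds are mixed with purified, untagged recombinant β-lactamase and held 15 min at 37 °C. Substrate is then added. Absorbance is followed immediately, and percent inhibition per concentration gives the IC50.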
# OXA-48 = OXA-48 (UniProt Q6XEC0); assay: β-lactamase enzyme inhibition assay, Class D oxacillinase; type: biochemical; conditions: read-out: OXA-48
# [1] = test system: E. coli expressing the Class A Extended Spectrum Beta-Lactamase (ESBL) CTX-M-15; assay: Broth microdilution MIC assay with ceftazidime, E. coli CTX-M-15; type: cell-based; conditions: Fixed CAZ (ceftazidime) 4 μg/mL; E. coli ESBL4 CTX-M-15
# Summary of the method: (§2)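 In cation-adjusted Mueller Hinton broth, bacteria pre-grown 3-5 hours were exposed to test compound (2-fold, 16–0.125 μg/mL) plus a static 4 μg/ml β-lactam. A panel of control β-lactams was run alongside, and the compound MIC was judged by eye following 16-20 hours at 37° C.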
# [2] = test system: E. cloacae expressing the Class C P99; assay: Broth microdilution MIC assay with ceftazidime, E. cloacae P99; type: cell-based; conditions: Fixed CAZ (ceftazidime) 4 μg/mL; E. cl. 144200 p99 AmpC
# Summary of the method: as §2
# [3] = test system: K. pneumoniae expressing the Class A carbapenemase KPC-2; assay: Broth microdilution MIC assay with meropenem, K. pneumoniae KPC-2; type: cell-based; conditions: Fixed Mero (meropenem) 4 μg/mL; K. p. 156319 KPC-3
# Summary of the method: as §2
# [4] = test system: P. aeruginosa expressing the Class B carbapenemase VIM-2; assay: Broth microdilution MIC assay with meropenem, P. aeruginosa VIM-2; type: cell-based; conditions: Fixed Mero (meropenem) 4 μg/mL; P. aerug. 2775 VIM-2
# Summary of the method: as §2
# [5] = test system: K. pneumoniae expressing the class A carbapenemase KPC-2 and the class B carbapenemase VIM-4; assay: Broth microdilution MIC assay with meropenem, K. pneumoniae KPC-2 and VIM-4; type: cell-based; conditions: Fixed Mero (meropenem) 4 μg/mL; K. p. A-1797 KPC-2 VIM-4
# Summary of the method: as §2
# [6] = test system: K. pneumoniae producing the Class D carbapenemase OXA-48; assay: Broth microdilution MIC assay with meropenem, K. pneumoniae OXA-48; type: cell-based; conditions: Fixed Mero (meropenem) 4 μg/mL; K. p. 11978 OXA-48
# Summary of the method: as §2
# T1 sequence (P0A3M1 22-286): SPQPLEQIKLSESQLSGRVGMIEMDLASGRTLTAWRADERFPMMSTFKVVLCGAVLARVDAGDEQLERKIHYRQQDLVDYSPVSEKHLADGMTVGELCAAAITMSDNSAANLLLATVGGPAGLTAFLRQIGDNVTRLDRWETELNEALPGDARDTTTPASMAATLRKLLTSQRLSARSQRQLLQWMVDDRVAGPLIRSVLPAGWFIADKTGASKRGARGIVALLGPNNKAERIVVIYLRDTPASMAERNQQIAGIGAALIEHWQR
# T4 sequence (P05364 21-381): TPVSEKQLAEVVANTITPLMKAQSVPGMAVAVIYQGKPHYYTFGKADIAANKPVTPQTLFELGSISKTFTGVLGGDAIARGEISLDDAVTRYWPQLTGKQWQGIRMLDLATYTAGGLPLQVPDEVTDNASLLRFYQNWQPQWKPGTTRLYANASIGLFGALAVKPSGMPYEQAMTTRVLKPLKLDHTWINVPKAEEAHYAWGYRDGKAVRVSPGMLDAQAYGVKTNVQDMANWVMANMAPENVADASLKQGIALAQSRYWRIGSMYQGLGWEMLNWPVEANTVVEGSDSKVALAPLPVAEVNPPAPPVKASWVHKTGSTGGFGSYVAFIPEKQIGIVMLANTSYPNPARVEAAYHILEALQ
# T2 sequence (Q9F663 25-293, looked up): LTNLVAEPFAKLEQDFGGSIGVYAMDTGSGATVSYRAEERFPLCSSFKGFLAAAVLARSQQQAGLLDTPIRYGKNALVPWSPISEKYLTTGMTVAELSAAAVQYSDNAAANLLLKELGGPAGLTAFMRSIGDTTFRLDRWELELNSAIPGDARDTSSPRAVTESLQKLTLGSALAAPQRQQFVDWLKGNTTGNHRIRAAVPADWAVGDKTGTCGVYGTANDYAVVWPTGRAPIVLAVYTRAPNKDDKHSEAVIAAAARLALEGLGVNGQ
Compound,IC50 (SHV-5) [nM],IC50 (KPC-2) [nM],IC50 (VIM-2) [nM],IC50 (AmpC) [nM],IC50 (OXA-48) [nM],MIC (μg/mL) of Exemplary Compounds in presence of fixed β-lactams: E. coli ESBL4 CTX-M-15 [1],MIC (μg/mL) of Exemplary Compounds in presence of fixed β-lactams: E. cl. 144200 p99 AmpC [2],MIC (μg/mL) of Exemplary Compounds in presence of fixed β-lactams: K. p. 156319 KPC-3 [3],MIC (μg/mL) of Exemplary Compounds in presence of fixed β-lactams: P. aerug. 2775 VIM-2 [4],MIC (μg/mL) of Exemplary Compounds in presence of fixed β-lactams: K. p. A-1797 KPC-2 VIM-4 [5],MIC (μg/mL) of Exemplary Compounds in presence of fixed β-lactams: K. p. 11978 OXA-48 [6]
"NCCCNC(=O)c1cn(CC(=O)N[C@H]2Cc3cccc(C(=O)O)c3OB2O)nn1 [Example 65, (R)-3-(2-(4-((3-aminopropyl)carbamoyl)-1H-1,2,3-triazol-1-yl)acetamido)-2-hydroxy-3,4-dihydro-2H-benzo[e][1,2]oxaborinine-8-carboxylic acid]",< 100,< 100,< 100,< 100,100 to 1000,C (C represents an MIC of <1 μg/mL),C (C represents an MIC of <1 μg/mL),C (C represents an MIC of <1 μg/mL),B (B represents an MIC between 1 and 16 μg/mL inclusive),B (B represents an MIC between 1 and 16 μg/mL inclusive),B (B represents an MIC between 1 and 16 μg/mL inclusive)
"N[C@H]1CCN(C(=O)c2cn(CC(=O)N[C@H]3Cc4cccc(C(=O)O)c4OB3O)nn2)C1 [Example 66, (R)-3-(2-(4-((S)-3-aminopyrrolidine-1-carbonyl)-1H-1,2,3-triazol-1-yl)acetamido)-2-hydroxy-3,4-dihydro-2H-benzo[e][1,2]oxaborinine-8-carboxylic acid]",< 100,< 100,< 100,< 100,100 to 1000,C (C represents an MIC of <1 μg/mL),C (C represents an MIC of <1 μg/mL),C (C represents an MIC of <1 μg/mL),C (C represents an MIC of <1 μg/mL),B (B represents an MIC between 1 and 16 μg/mL inclusive),B (B represents an MIC between 1 and 16 μg/mL inclusive)
"NCc1nnc(CC(=O)N[C@H]2Cc3cccc(C(=O)O)c3OB2O)s1 [Example 67, (R)-3-(2-(5-(aminomethyl)-1,3,4-thiadiazol-2-yl)acetamido)-2-hydroxy-3,4-dihydro-2H-benzo[e][1,2]oxaborinine-8-carboxylic acid]",< 100,< 100,100 to 1000,< 100,100 to 1000,C (C represents an MIC of <1 μg/mL),C (C represents an MIC of <1 μg/mL),B (B represents an MIC between 1 and 16 μg/mL inclusive),C (C represents an MIC of <1 μg/mL),B (B represents an MIC between 1 and 16 μg/mL inclusive),B (B represents an MIC between 1 and 16 μg/mL inclusive)
"NCc1cnn(CC(=O)N[C@H]2Cc3cccc(C(=O)O)c3OB2O)c1 [Example 68, (R)-3-(2-(4-(aminomethyl)-1H-pyrazol-1-yl)acetamido)-2-hydroxy-3,4-dihydro-2H-benzo[e][1,2]oxaborinine-8-carboxylic acid]",100 to 1000,< 100,100 to 1000,< 100,100 to 1000,C (C represents an MIC of <1 μg/mL),C (C represents an MIC of <1 μg/mL),C (C represents an MIC of <1 μg/mL),C (C represents an MIC of <1 μg/mL),B (B represents an MIC between 1 and 16 μg/mL inclusive),B (B represents an MIC between 1 and 16 μg/mL inclusive)
"NCCS(=O)(=O)NCc1cn(CC(=O)N[C@H]2Cc3cccc(C(=O)O)c3OB2O)nn1 [Example 69, (R)-3-(2-(4-(((2-aminoethyl)sulfonamido)methyl)-1H-1,2,3-triazol-1-yl)acetamido)-2-hydroxy-3,4-dihydro-2H-benzo[e][1,2]oxaborinine-8-carboxylic acid]",< 100,< 100,100 to 1000,< 100,1000 to 10000,C (C represents an MIC of <1 μg/mL),C (C represents an MIC of <1 μg/mL),B (B represents an MIC between 1 and 16 μg/mL inclusive),C (C represents an MIC of <1 μg/mL),B (B represents an MIC between 1 and 16 μg/mL inclusive),B (B represents an MIC between 1 and 16 μg/mL inclusive)
"Nc1ccc(S(=O)(=O)NCc2cn(CC(=O)N[C@H]3Cc4cccc(C(=O)O)c4OB3O)nn2)cc1 [Example 70, (R)-3-(2-(4-(((4-aminophenyl)sulfonamido)methyl)-1H-1,2,3-triazol-1-yl)acetamido)-2-hydroxy-3,4-dihydro-2H-benzo[e][1,2]oxaborinine-8-carboxylic acid]",< 100,< 100,1000 to 10000,< 100,100 to 1000,C (C represents an MIC of <1 μg/mL),C (C represents an MIC of <1 μg/mL),B (B represents an MIC between 1 and 16 μg/mL inclusive),B (B represents an MIC between 1 and 16 μg/mL inclusive),B (B represents an MIC between 1 and 16 μg/mL inclusive),B (B represents an MIC between 1 and 16 μg/mL inclusive)
"NCCn1cnc(C(=O)N[C@H]2Cc3cccc(C(=O)O)c3OB2O)n1 [Example 71, (R)-3-(1-(2-aminoethyl)-1H-1,2,4-triazole-3-carboxamido)-2-hydroxy-3,4-dihydro-2H-benzo[e][1,2]oxaborinine-8-carboxylic acid]",100 to 1000,100 to 1000,100 to 1000,< 100,10000 to 100000,C (C represents an MIC of <1 μg/mL),C (C represents an MIC of <1 μg/mL),C (C represents an MIC of <1 μg/mL),C (C represents an MIC of <1 μg/mL),B (B represents an MIC between 1 and 16 μg/mL inclusive),A (A represents an MIC>16 μg/mL)
"NCCn1cnc(C(=O)N[C@H]2Cc3cccc(C(=O)O)c3OB2O)c1 [Example 72, (R)-3-(1-(2-aminoethyl)-1H-imidazole-4-carboxamido)-2-hydroxy-3,4-dihydro-2H-benzo[e][1,2]oxaborinine-8-carboxylic acid]",< 100,< 100,100 to 1000,< 100,100 to 1000,C (C represents an MIC of <1 μg/mL),C (C represents an MIC of <1 μg/mL),C (C represents an MIC of <1 μg/mL),B (B represents an MIC between 1 and 16 μg/mL inclusive),B (B represents an MIC between 1 and 16 μg/mL inclusive),B (B represents an MIC between 1 and 16 μg/mL inclusive)
